Source: patent US20190142971A1, “FORMULATION AND DELIVERY OF MODIFIED NUCLEOSIDE, NUCLEOTIDE, AND NUCLEIC ACID COMPOSITIONS” (ModernaTX, Inc., priority 2013, published 2019)

Key:
Balb-C mice [1] = test: Example 112: luciferase mRNA electroporation dose response, total flux (Tables 179, 180); details: mouse, in vivo
Protocol: The mice undergoing electroporation were subjected to electroporation (EP) using the […]™ instrument (Harvard Apparatus/BTX®, Holliston, Mass.), as outlined in Table 179, immediately after the administration of luciferase or the control.
All of the mice are imaged at 3 hours, 24 hours, 48 hours, 168 hours, 336 hours and 504 hours post-administration of luciferase modified mRNA. Twenty minutes prior to imaging, the mice are injected intraperitoneally with a D-luciferin solution at 150 mg/kg. Animals are then anesthetized and images were acquired with an IVIS Lumina II imaging system (Perkin Elmer). Bioluminescence is measured as total flux (photons/second) of the entire mouse.

Balb-C mice [2] = test: Example 108: luciferase mRNA IM with electroporation, total flux (Tables 174-176); assay type: in vivo; details: 2.5 mg/kg IM with electroporation
Protocol: The mice of Group 2 were treated with electroporation (EP) using the […]™ instrument (Harvard Apparatus/BTX®, Holliston, Mass.) immediately after administration of luciferase.
[…] Twenty minutes prior to imaging, the mice were injected intraperitoneally with a D-luciferin solution at 150 mg/kg. Animals were then anesthetized and images were acquired with an IVIS Lumina II imaging system (Perkin Elmer). Bioluminescence was measured as total flux (photons/second) of the entire mouse.

Balb-C mice [3] = test: Example 85: lipoplexed luciferase mRNA IV, IM, SC, flux and organ flux (Tables 131, 132); assay type: in vivo; details: 0.10 mg/kg; for Flux (average total flux, entire mouse): Balb-C mice; for Organ Flux, Inj. Site: imaged at 6 hours; for Organ Flux, Kidney / Organ Flux, Liver / Organ Flux, Lung / Organ Flux, Spleen: organs imaged at 6 hours
Protocol: The formulation was administered intravenously (I.V.), intramuscularly (I.M.) or subcutaneously (S.C.) to Balb-C mice at a dose of 0.10 mg/kg.
Twenty minutes prior to imaging, mice were injected intraperitoneally with a D-luciferin solution at 150 mg/kg. Animals were then anesthetized and images were acquired with an IVIS Lumina II imaging system (Perkin Elmer). Bioluminescence was measured as total flux (photons/second) of the entire mouse. The mice were imaged at 8 hours, 24 hours and 48 hours after dosing and the average total flux (photons/second) was measured for each route of administration and chemical modification. The background signal was about 3.91E+05 p/s. Organs were imaged at 6 hours and the average total flux (photons/second) was measured for the liver, spleen, lung and kidney. A control for each organ was also analyzed.

Balb-C mice [4] = test: Example 76: modified luciferase mRNA in PBS IM, SC in mice, total flux (Tables 115, 116); assay type: in vivo; details: 2.5 mg/kg, PBS (pH 7.4)
Protocol: The mice were imaged at 2 hours, 8 hours, 24 hours, 48 hours, 72 hours, 96 hours, 120 hours and 144 hours for intramuscular delivery and 2 hours, 8 hours, 24 hours, 48 hours, 72 hours, 96 hours and 120 hours for subcutaneous delivery. Twenty minutes prior to imaging, mice were injected intraperitoneally with a D-luciferin solution at 150 mg/kg. Animals were then anesthetized and images were acquired with an IVIS Lumina II imaging system (Perkin Elmer). Bioluminescence was measured as total flux (photons/second) of the entire mouse. The average total flux (photons/second) for intramuscular administration is shown in Table 115 and the average total flux (photons/second) for subcutaneous administration is shown in Table 116. The background signal was 3.79E+05 (p/s). The peak expression for intramuscular administration was seen between 24 and 48 hours for all chemistry and expression was still detected at 144 hours.

Balb-C mice [5] = test: Example 113: FGF21 mRNA IM with or without electroporation, serum FGF21 (Tables 181, 182); assay type: in vivo; details: 5 mg/kg IM
Protocol: The mice undergoing electroporation were subjected to electroporation (EP) using the […]′ instrument (Harvard Apparatus/BTX®, Holliston, Mass.), as outlined in Table 181, immediately after the administration of FGF21 mRNA or the control.
Serum was collected from the mice at 2 hours and 8 hours.

**Q.** “Luciferase modified mRNA: luciferase mRNA, SEQ ID NO: 14, fully modified with 5-methylcytosine and 1-methylpseudouridine, in PBS (pH 7.4)” was tested. Which “protein expression with vs without electroporation” value (Balb-C mice [1]) did it give?
**A.** increase protein expression

**Q.** What about the “expression greater than an order of magnitude above background out to” value (Balb-C mice [2]) of the same molecule?
**A.** 480 h

**Q.** And the “Flux (average total flux, entire mouse)” value (Balb-C mice [3]; I.M., 8 hrs)?
**A.** 2.53E+06 p/s

**Q.** And the “Flux (average total flux, entire mouse)” value (Balb-C mice [3]; I.M., 24 hrs)?
**A.** 7.84E+05 p/s

**Q.** And the “Flux (average total flux, entire mouse)” value (Balb-C mice [3]; I.M., 48 hrs)?
**A.** 6.59E+05 p/s

**Q.** And the “Organ Flux, Inj. Site” value (Balb-C mice [3]; I.M.)?
**A.** 1.20E+06 p/s

**Q.** And the “Organ Flux, Kidney” value (Balb-C mice [3]; I.M.)?
**A.** 1.56E+04 p/s

**Q.** And the “Organ Flux, Liver” value (Balb-C mice [3]; I.M.)?
**A.** 1.72E+04 p/s

**Q.** And the “Organ Flux, Lung” value (Balb-C mice [3]; I.M.)?
**A.** 1.99E+04 p/s

**Q.** What about the “Organ Flux, Spleen” value (Balb-C mice [3]; I.M.) of the same molecule?
**A.** 1.76E+04 p/s

**Q.** And the “Flux (average total flux, entire mouse)” value (Balb-C mice [3]; I.V., 8 hrs)?
**A.** 1.78E+06 p/s

**Q.** And the “Flux (average total flux, entire mouse)” value (Balb-C mice [3]; I.V., 24 hrs)?
**A.** 7.13E+05 p/s

**Q.** And the “Flux (average total flux, entire mouse)” value (Balb-C mice [3]; I.V., 48 hrs)?
**A.** 3.76E+05 p/s

**Q.** What about the “Organ Flux, Kidney” value (Balb-C mice [3]; I.V.) of the same molecule?
**A.** 1.77E+04 p/s

**Q.** What about the “Organ Flux, Liver” value (Balb-C mice [3]; I.V.) of the same molecule?
**A.** 1.48E+05 p/s

**Q.** And the “Organ Flux, Lung” value (Balb-C mice [3]; I.V.)?
**A.** 1.93E+06 p/s

**Q.** What about the “Organ Flux, Spleen” value (Balb-C mice [3]; I.V.) of the same molecule?
**A.** 5.00E+06 p/s

**Q.** And the “Flux (average total flux, entire mouse)” value (Balb-C mice [3]; S.C., 8 hrs)?
**A.** 6.48E+06 p/s

**Q.** What about the “Flux (average total flux, entire mouse)” value (Balb-C mice [3]; S.C., 24 hrs) of the same molecule?
**A.** 7.15E+06 p/s

**Q.** What about the “Flux (average total flux, entire mouse)” value (Balb-C mice [3]; S.C., 48 hrs) of the same molecule?
**A.** 3.20E+06 p/s

**Q.** What about the “Organ Flux, Inj. Site” value (Balb-C mice [3]; S.C.) of the same molecule?
**A.** 8.29E+04 p/s

**Q.** What about the “Organ Flux, Kidney” value (Balb-C mice [3]; S.C.) of the same molecule?
**A.** 1.14E+04 p/s

**Q.** And the “Organ Flux, Liver” value (Balb-C mice [3]; S.C.)?
**A.** 1.20E+04 p/s

**Q.** And the “Organ Flux, Lung” value (Balb-C mice [3]; S.C.)?
**A.** 1.38E+04 p/s

**Q.** And the “Organ Flux, Spleen” value (Balb-C mice [3]; S.C.)?
**A.** 1.46E+04 p/s

**Q.** And the Flux (Balb-C mice [4]; Intramuscular, 2 hours)?
**A.** 4.65E+06 p/s

**Q.** What about the Flux (Balb-C mice [4]; Intramuscular, 8 hours) of the same molecule?
**A.** 3.64E+06 p/s

**Q.** What about the Flux (Balb-C mice [4]; Intramuscular, 24 hours) of the same molecule?
**A.** 1.22E+07 p/s

**Q.** What about the Flux (Balb-C mice [4]; Intramuscular, 48 hours) of the same molecule?
**A.** 1.01E+07 p/s

**Q.** What about the Flux (Balb-C mice [4]; Intramuscular, 72 hours) of the same molecule?
**A.** 8.59E+06 p/s

**Q.** And the Flux (Balb-C mice [4]; Intramuscular, 96 hours)?
**A.** 2.70E+06 p/s

**Q.** What about the Flux (Balb-C mice [4]; Intramuscular, 120 hours) of the same molecule?
**A.** 1.60E+06 p/s

**Q.** What about the Flux (Balb-C mice [4]; Intramuscular, 144 hours) of the same molecule?
**A.** 2.19E+06 p/s

**Q.** What about the Flux (Balb-C mice [4]; Subcutaneous, 2 hours) of the same molecule?
**A.** 4.54E+06 p/s

**Q.** And the Flux (Balb-C mice [4]; Subcutaneous, 8 hours)?
**A.** 8.75E+05 p/s

**Q.** And the Flux (Balb-C mice [4]; Subcutaneous, 24 hours)?
**A.** 5.49E+06 p/s

**Q.** And the Flux (Balb-C mice [4]; Subcutaneous, 48 hours)?
**A.** 1.77E+06 p/s

**Q.** What about the Flux (Balb-C mice [4]; Subcutaneous, 72 hours) of the same molecule?
**A.** 8.00E+05 p/s

**Q.** What about the Flux (Balb-C mice [4]; Subcutaneous, 96 hours) of the same molecule?
**A.** 5.33E+05 p/s

**Q.** And the Flux (Balb-C mice [4]; Subcutaneous, 120 hours)?
**A.** 4.09E+05 p/s

B1: FGF21 modified mRNA: Fibroblast Growth Factor 21 mRNA, SEQ ID NO: 24, 5-methylcytosine and 1-methylpseudouridine, in PBS (nucleic acid)
chain: GGGAAAUAAGAGAGAAAAGAAGAGUAAGAAGAAAUAUAAGAGCCACCAUGGACUCGGACGAGACCGGGUUCGAGCACUCAGGACUGUGGGUUUCUGUGCUGGCUGGUCUUCUGCUGGGAGCCUGCCAGGCACACCCCAUCCCUGACUCCAGUCCUCUCCUGCAAUUCGGGGGCCAAGUCCGGCAGCGGUACCUCUACACAGAUGAUGCCCAGCAGACAGAAGCCCACCUGGAGAUCAGGGAGGAUGGGACGGUGGGGGGCGCUGCUGACCAGAGCCCCGAAAGUCUCCUGCAGCUGAAAGCCUUGAAGCCGGGAGUUAUUCAAAUCUUGGGAGUCAAGACAUCCAGGUUCCUGUGCCAGCGGCCAGAUGGGGCCCUGUAUGGAUCGCUCCACUUUGACCCUGAGGCCUGCAGCUUCCGGGAGCUGCUUCUUGAGGACGGAUACAAUGUUUACCAGUCCGAAGCCCACGGCCUCCCGCUGCACCUGCCAGGGAACAAGUCCCCACACCGGGACCCUGCACCCCGAGGACCAGCUCGCUUCCUGCCACUACCAGGCCUGCCCCCCGCACCCCCGGAGCCACCCGGAAUCCUGGCCCCCCAGCCCCCCGAUGUGGGCUCCUCGGACCCUCUGAGCAUGGUGGGACCUUCCCAGGGCCGAAGCCCCAGCUACGCUUCCUGAUAAUAGGCUGGAGCCUCGGUGGCCAUGCUUCUUGCCCCUUGGGCCUCCCCCCAGCCCCUCCUCCCCUUCCUGCACCCGUACCCCCGUGGUCUUUGAAUAAAGUCUGAGUGGGCGGC
modifications: 5-methylcytosine, 1-methylpseudouridine
**Q.** Which “protein production with vs without electroporation” value (Balb-C mice [5]) does the source give for B1 here?
**A.** increase protein production
